Laboratory results as given in patent US8536187B2 (Gilead Sciences, Inc., priority 2008, dated 2013).

Tests used:
[1] = test system: HCV replicon in human hepatoma Huh-7 cell line; assay: Anti-HCV replicon assay, EC50 (luciferase luminescence); format: cell-based; conditions: Hepatitis C virus, Huh-7, 72 h
How it was run: (§1)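 Cytotoxicity (CC50) read by CellTiter-Glo luminescence after 10 min, and antiviral EC50 by luciferase signal after 30 min lysis with substrate, both at room temperature. Preceding step: 3-day exposure of 6000 Huh-7 HCV replicon cells per well to compound dilution series at 37° C, 5% CO2, in 0.5% DMSO.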

[2] = CC50 assay (CellTiter-Glo) in Huh-7 HCV replicon cells; format: cell-based; conditions: human, Table 2, 3 days incubation
How it was run: as §1

## CS(=O)(=O)Nc1cncc(CNc2nc(NC3(C(F)(F)F)CC3)c3nc(-c4ccc(F)cc4)ccc3n2)c1 [Example 134, N-(5-((6-(4-fluorophenyl)-4-(1-(trifluoromethyl)cyclopropyl-amino)pyrido[3,2-d]pyrimidin-2-ylamino)methyl)pyridin-3-yl)methanesulfonamide]
[1]
  EC50: 250 to 2000 nM
[2]
  CC50 at 3 days: > 10000 nM

## CCS(=O)(=O)c1cccc(-c2ccc3nc(N[C@H](C)c4ccc(-n5cncn5)cc4)nc(NCC(F)(F)F)c3n2)c1 [Example 182, N^2-((R)-1-(4-(1H-1,2,4-triazol-1-yl)phenyl)ethyl)-6-(3-(ethylsulfonyl)phenyl)-N^4-(2,2,2-trifluoroethyl)pyrido [3,2-d]pyrimidine-2,4-diamine]
[1]
  EC50: < 100 nM
[2]
  CC50 at 3 days: 1000 to 10000 nM

## CC#Cc1ccc2nc(N[C@H](C)c3ccc(S(N)(=O)=O)cc3)nc(OC3(C)CC3)c2n1 [Example 302, (R)-4-(1-(4-(1-methylcyclo-propoxy)-6-(prop-1-ynyl)pyrido[3,2-d]pyrimidin-2-ylamino)ethyl)benzene-sulfonamide]
[1]
  EC50: < 100 nM
[2]
  CC50 at 3 days: > 10000 nM

## C[C@@H](Nc1nc(NCC(F)(F)F)c2nc(C#CC3CC3)ccc2n1)c1ccc(S(N)(=O)=O)cc1 [Example 275, (R)-4-(1-(6-(2-cyclopropyl-ethynyl)-4-(2,2,2-trifluoro-ethylamino)pyrido[3,2-d]pyrimidin-2-ylamino)ethyl) benzenesulfonamide]
[1]
  EC50: < 100 nM
[2]
  CC50 at 3 days: > 10000 nM

## c1ncn(-c2ccc(CNc3nc(OC4CC4)c4nc(-c5ccc(OC6CCC6)nc5)ccc4n3)cc2)n1 [Example 251, N-(4-(1H-1,2,4-triazol-1-yl)benzyl)-6-(6-cyclobutoxy-pyridin-3-yl)-4-cyclopropoxy-pyrido[3,2-d]pyrimidin-2-amine]
[1]
  EC50: 100 to 250 nM
[2]
  CC50 at 3 days: 1000 to 10000 nM

## N#Cc1cc(F)ccc1-c1ccc2nc(NCc3cc(C(F)(F)F)cc(S(N)(=O)=O)c3)nc(NC3(C(F)(F)F)CC3)c2n1 [Example 99, 3-((6-(2-cyano-4-fluorophenyl)-4-(1-(trifluoromethyl)cyclopropyl-amino)pyrido[3,2-d]pyrimidin-2-ylamino)methyl)-5-(trifluoro-methyl)benzenesulfonamide]
[1]
  EC50: < 100 nM
[2]
  CC50 at 3 days: 1000 to 10000 nM

## NS(=O)(=O)c1ccc(CNc2nc(NC3(C(F)(F)F)CC3)c3nc(-c4ccc(OC(F)F)cc4)ccc3n2)cc1 [Example 61, 4-((6-(4-(difluoromethoxy)phenyl)-4-(1-(trifluoromethyl)cyclopropylamino)pyrido[3,2-d]pyrimidin-2-ylamino)methyl) benzenesulfonamide]
[1]
  EC50: < 100 nM
[2]
  CC50 at 3 days: 1000 to 10000 nM

## C#Cc1ccc2nc(N[C@H](C)c3ccc(S(N)(=O)=O)cc3)nc(OC(C)C)c2n1 [Example 306, (R)-4-(1-(6-ethynyl-4-isopropoxypyrido[3,2-d]pyrimidin-2-ylamino)ethyl) benzenesulfonamide]
[1]
  EC50: 250 to 2000 nM
[2]
  CC50 at 3 days: < 1000 nM

## CS(=O)(=O)c1cccc(-c2ccc3nc(NCCO)nc(NCC(F)(F)F)c3n2)c1 [Example 162, 2-(6-(3-(methylsulfonyl)phenyl)-4-(2,2,2-trifluoroethyl-amino)pyrido[3,2-d]pyrimidin-2-ylamino)ethanol]
[1]
  EC50: 250 to 2000 nM
[2]
  CC50 at 3 days: > 10000 nM

## N#Cc1cc(F)ccc1-c1ccc2nc(NCc3cccc(S(N)(=O)=O)c3)nc(NC3(C(F)(F)F)CC3)c2n1 [Example 98, 3-((6-(2-cyano-4-fluorophenyl)-4-(1-(trifluoromethyl)cyclopropyl-amino)pyrido[3,2-d]pyrimidin-2-ylamino)methyl)benzene-sulfonamide]
[1]
  EC50: < 100 nM
[2]
  CC50 at 3 days: 1000 to 10000 nM

## COc1ccc(-c2ccc3nc(NCc4cccc(S(C)(=O)=O)c4)nc(NCC(F)(F)F)c3n2)cc1S(C)(=O)=O [Example 177, N^2-(3-(methylsulfonyl)benzyl)-6-(4-methoxy-3-(methylsulfonyl)phenyl)-N^4-(2,2,2-trifluoroethyl) pyrido[3,2-d]pyrimidine-2,4-diamine]
[1]
  EC50: < 100 nM
[2]
  CC50 at 3 days: 1000 to 10000 nM

## COCc1ccc(-c2ccc3nc(NCc4ccc(S(N)(=O)=O)cc4)nc(NCC(F)(F)F)c3n2)cc1S(C)(=O)=O [Example 146, 4-((6-(4-(methoxymethyl)-3-(methylsulfonyl)phenyl)-4-(2,2,2-trifluoroethylamino)pyrido[3,2-d]pyrimidin-2-ylamino)methyl)benzene-sulfonamide]
[1]
  EC50: < 100 nM
[2]
  CC50 at 3 days: > 10000 nM

## CC(C)Oc1nc(N[C@H](C)c2ccc(S(N)(=O)=O)cc2)nc2ccc(C#CC3CC3)nc12 [Example 304, (R)-4-(1-(6-(2-cyclopropyl-ethynyl)-4-isopropoxypyrido [3,2-d]pyrimidin-2-ylamino)ethyl)benzenesulfonamide]
[1]
  EC50: < 100 nM
[2]
  CC50 at 3 days: > 10000 nM

## C[C@H](Nc1nc(NCc2ccc(-n3cncn3)cc2)nc2ccc(-c3cccc(S(C)(=O)=O)c3)nc12)C(F)(F)F [Example 187, N^2-(4-(1H-1,2,4-triazol-1-yl)benzyl)-6-(3-(methylsulfonyl)phenyl)-N^4-((S)-1,1,1-trifluoropropan-2-yl)pyrido [3,2-d]pyrimidine-2,4-diamine]
[1]
  EC50: < 100 nM
[2]
  CC50 at 3 days: > 10000 nM

## COc1ccc(-c2ccc3nc(NC(C)c4ccc(-n5cncn5)cc4)nc(NC4(C(F)(F)F)CC4)c3n2)cc1S(C)(=O)=O (stereo not shown) [Example 97, N^2-(1-(4-(1H-1,2,4-triazol-1-yl)phenyl)ethyl)-6-(4-methoxy-3-(methylsulfonyl)phenyl)-N^4-(1-(trifluoromethyl)cyclopropyl)pyrido[3,2-d] pyrimidine-2,4-diamine]
[1]
  EC50: < 100 nM
[2]
  CC50 at 3 days: > 10000 nM

## C[C@@H](Nc1nc(NCC(F)(F)F)c2nc(-c3cccc(S(C)(=O)=O)c3)ccc2n1)c1ccc(-n2cncn2)cc1 [Example 170, N^2-((R)-1-(4-(1H-1,2,4-triazol 1-yl)phenyl)ethyl)-6-(3-(methylsulfonyl)phenyl)-N^4-(2,2,2-trifluoroethyl)pyrido [3,2-d]pyrimidine-2,4-diamine]
[1]
  EC50: < 100 nM
[2]
  CC50 at 3 days: 1000 to 10000 nM

## C[C@@H](Nc1nc(NC2(C(F)(F)F)CC2)c2nc(C#CC3CC3)ccc2n1)c1ccc(S(N)(=O)=O)cc1 [Example 69, (R)-4-(1-(6-(2-cyclopropylethynyl)-4-(1-(trifluoromethyl)cyclopropyl-amino)pyrido[3,2-d]pyrimidin-2-ylamino)ethyl)benzene-sulfonamide]
[1]
  EC50: < 100 nM
[2]
  CC50 at 3 days: > 10000 nM

## CS(=O)(=O)c1cccc(-c2ccc3nc(NCCS(N)(=O)=O)nc(NCC(F)(F)F)c3n2)c1 [Example 137, 2-(6-(3-(methylsulfonyl)phenyl)-4-(2,2,2-trifluoroethylamino)pyrido [3,2-d]pyrimidin-2-ylamino)ethanesulfonamide]
[1]
  EC50: 100 to 250 nM
[2]
  CC50 at 3 days: > 10000 nM

## CC[C@@H](Nc1nc(NCC(F)(F)F)c2nc(-c3ccc(OC)c(S(C)(=O)=O)c3)ccc2n1)c1ccc(S(N)(=O)=O)cc1 [Example 154, 4-((R)-1-(6-(4-methoxy-3-(methylsulfonyl)phenyl)-4-(2,2,2-trifluoroethylamino)pyrido[3,2-d]pyrimidin-2-ylamino)propyl)benzene-sulfonamide]
[1]
  EC50: 100 to 250 nM
[2]
  CC50 at 3 days: > 10000 nM

## COc1ccc(-c2ccc3nc(NCc4ccc(S(N)(=O)=O)cc4)nc(NC4(C(F)(F)F)CC4)c3n2)cc1S(C)(=O)=O [Example 28, 4-{[6-(3-Methanesulfonyl-4-methoxy-phenyl)-4-(1-trifluoromethyl-cyclopropylamino)-pyrido[3,2-d]pyrimidin-2-ylamino]-methyl}-benzenesulfonamide]
[1]
  EC50: < 100 nM
[2]
  CC50 at 3 days: 1000 to 10000 nM

## Cc1cc(S(N)(=O)=O)c(C)cc1CNc1nc(NC2(C(F)(F)F)CC2)c2nc(-c3ccc(F)cc3)ccc2n1 [Example 83, 4-((6-(4-fluorophenyl)-4-(1-(trifluoromethyl)cyclopropylamino)pyrido[3,2-d]pyrimidin-2-ylamino)methyl)-2.5-dimethylbenzenesulfonamide]
[1]
  EC50: 100 to 250 nM
[2]
  CC50 at 3 days: > 10000 nM

## NS(=O)(=O)c1ccc(CNc2nc(NC3(C(F)(F)F)CC3)c3nc(-c4ccc(N5CCCS5(=O)=O)cc4)ccc3n2)cc1 [Example 130, 4-((6-(4-(1,1-dioxo-isothiazolidin-2-yl)phenyl)-4-(1-(trifluoromethyl)cyclopropyl-amino)pyrido[3,2-d]pyrimidin-2-ylamino)methyl)benzene-sulfonamide]
[1]
  EC50: < 100 nM
[2]
  CC50 at 3 days: < 1000 nM

## C[C@@H](Nc1nc(OC2CCC2)c2nc(C#CC3CC3)ccc2n1)c1ccc(S(N)(=O)=O)cc1 [Example 305, (R)-4-(1-(4-cyclobutoxy-6-(2-cyclopropylethynyl)pyrido [3,2-d]pyrimidin-2-ylamino)ethyl)benzenesulfonamide]
[1]
  EC50: < 100 nM
[2]
  CC50 at 3 days: > 10000 nM

## CC(C)Oc1ccc(-c2ccc3nc(NCc4ccc(-n5cncn5)cc4)nc(NCC(F)(F)F)c3n2)cn1 [Example 240, N^2-(4-(1H-1,2,4-triazol-1-yl)benzyl)-6-(6-isopropoxy-pyridin-3-yl)-N^4-(2,2,2-trifluoroethyl)pyrido[3,2-d] pyrimidine-2,4-diamine]
[1]
  EC50: < 100 nM
[2]
  CC50 at 3 days: > 10000 nM

## NS(=O)(=O)c1cc(Cl)cc(CNc2nc(NC3(C(F)(F)F)CC3)c3nc(-c4ccc(NC(=O)C5(C(F)(F)F)CC5)cc4)ccc3n2)c1 [Example 48, 3-chloro-5-((6-(4-(1-(trifluoromethyl)cyclopropyl-carboxamido)phenyl)-4-(1-(trifluoromethyl)cyclopropyl-amino)pyrido[3,2-d]pyrimidin-2-ylamino)methyl)benzene-sulfonamide]
[1]
  EC50: < 100 nM
[2]
  CC50 at 3 days: 1000 to 10000 nM

## C[C@@H](Nc1nc(NC2(C(F)(F)F)CC2)c2nc(-c3ccc(F)cc3)ccc2n1)c1ccc(S(N)(=O)=O)c(C(F)(F)F)c1 [Example 119, (R)-4-(1-(6-(4-fluorophenyl)-4-(1-(trifluoromethyl)cyclo-propylamino)pyrido[3,2-d]pyrimidin-2-ylamino)ethyl)-2-(trifluoromethyl)benzene-sulfonamide]
[1]
  EC50: 250 to 2000 nM
[2]
  CC50 at 3 days: > 10000 nM
